Activity calls are given as the source filed them.
Columns and labels:
[1] = biological target: Voltage-gated inwardly rectifying potassium channel KCNH2 (Homo sapiens, UniProt Q12809); conditions: Potency;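 also: confirmatory quantitative high-throughput screen measuring inhibition of hERG channel activity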
[2] = insulin promoter down-regulators in MIN6 cells, imaging, high-content screening, mouse beta cells (AID 1628); format: functional
[3] = cytotoxicity in MIN6 insulinoma cells, dose response, cytotoxicity control, cell-based, mouse insulinoma (AID 2122); format: functional;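 also: confirmatory high-throughput counterscreen run to flag cytotoxic compounds; mouse MIN-6 beta cells carrying an insulin promoter eGFP reporter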
[4] = biological target: Glyceraldehyde-3-phosphate dehydrogenase (Homo sapiens, UniProt P04406)
[5] = biological target: T1, Alkaline phosphatase, tissue-nonspecific isozyme (Homo sapiens, UniProt P05186); assay: human TNAP enzyme inhibitors, SAR follow-up, biochemical, luminescent, dose response (AID 1056)
T1 sequence (P05186 whole entry): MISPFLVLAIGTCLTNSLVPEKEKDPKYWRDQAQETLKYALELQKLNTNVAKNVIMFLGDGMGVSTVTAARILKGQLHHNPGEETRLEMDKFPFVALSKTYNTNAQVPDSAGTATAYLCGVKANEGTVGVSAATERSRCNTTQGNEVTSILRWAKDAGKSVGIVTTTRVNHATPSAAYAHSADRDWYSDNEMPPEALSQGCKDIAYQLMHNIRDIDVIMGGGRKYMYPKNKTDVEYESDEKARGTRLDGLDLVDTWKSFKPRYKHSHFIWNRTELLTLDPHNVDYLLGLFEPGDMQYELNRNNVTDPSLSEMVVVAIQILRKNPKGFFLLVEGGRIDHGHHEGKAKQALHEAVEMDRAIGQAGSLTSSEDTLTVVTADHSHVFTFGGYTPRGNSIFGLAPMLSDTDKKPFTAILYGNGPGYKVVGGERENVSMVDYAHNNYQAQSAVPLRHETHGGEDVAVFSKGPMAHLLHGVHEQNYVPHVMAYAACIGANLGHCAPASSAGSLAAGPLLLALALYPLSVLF

Vero [6] = assay: cells; format: functional, cell-based; conditions: Chlorocebus sabaeus
Vero [7] = assay: cells; format: functional; conditions: Chlorocebus sabaeus
[8] = biological target: DNA dC->dU-editing enzyme APOBEC-3A (Homo sapiens, UniProt P31941); assay: Dose Response confirmation of small molecule APOBEC3A DNA Deaminase Inhibitors via a fluorescence-based single-stranded DNA deaminase assay. [Related pubchem assays (depositor defined):AID493011, AID493024]; format: functional
[9] = biological target: DNA dC->dU-editing enzyme APOBEC-3G (Homo sapiens, UniProt Q9HC16); format: functional;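 also: Dose-response counterscreen measuring inhibition of APOBEC3G DNA deaminase activity, run while confirming APOBEC3A inhibitors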
[10] = biological target: Eukaryotic translation initiation factor 4E (Mus musculus, UniProt P63073); assay: eIF4E–eIF4G protein interaction inhibitors, dose response, biochemical, TR-FRET (AID 855); format: functional;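 also: potency for disrupting eIF4E binding to eIF4GI seen as loss of FRET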
Cytochrome P450 2C19 = Cytochrome P450 2C19 (Homo sapiens, UniProt P33261); assay: Cytochrome panel assay with activity outcomes. Panel member name: p450-cyp2c19 Compounds with AC50 equal or less than 10 uM are considered active; format: functional
Cytochrome P450 2C9 = Cytochrome P450 2C9 (Homo sapiens, UniProt P11712)
[11] = growth induction of Burl-1 ts yeast mutant, dose response, counter-screen for SUMOylation pathway inhibitor project, whole organism, S. cerevisiae, luminescence (AID 463199); format: functional
[12] = inhibitors of intracellular T. cruzi replication, confirmation, NIH3T3 host cells, beta-gal luminescence (AID 2044); format: functional, cell-based;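 also: intracellular parasites grown in NIH/3T3 mouse fibroblasts as host cells; luminescent beta-galactosidase reporter signal from transgenic T. cruzi replicating inside host cells; inhibitors lower the luminescence signal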
[13] = cytotoxicity toward NIH3T3 fibroblasts, dose response, counter-screen, cell-based, ATP luminescence, mouse fibroblasts (AID 2010); format: functional;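 also: cells exposed to compound for about 90 hours before reading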
[14] = biological target: T2, Short transient receptor potential channel 4 (Mus musculus, UniProt Q9QUQ5); assay: mouse TRPC4 channel activators, dose response, cell-based, HEK293 TRPC4/mu-opioid, Fluo-4 calcium (AID 434937); format: functional
T2 sequence (Q9QUQ5 whole entry): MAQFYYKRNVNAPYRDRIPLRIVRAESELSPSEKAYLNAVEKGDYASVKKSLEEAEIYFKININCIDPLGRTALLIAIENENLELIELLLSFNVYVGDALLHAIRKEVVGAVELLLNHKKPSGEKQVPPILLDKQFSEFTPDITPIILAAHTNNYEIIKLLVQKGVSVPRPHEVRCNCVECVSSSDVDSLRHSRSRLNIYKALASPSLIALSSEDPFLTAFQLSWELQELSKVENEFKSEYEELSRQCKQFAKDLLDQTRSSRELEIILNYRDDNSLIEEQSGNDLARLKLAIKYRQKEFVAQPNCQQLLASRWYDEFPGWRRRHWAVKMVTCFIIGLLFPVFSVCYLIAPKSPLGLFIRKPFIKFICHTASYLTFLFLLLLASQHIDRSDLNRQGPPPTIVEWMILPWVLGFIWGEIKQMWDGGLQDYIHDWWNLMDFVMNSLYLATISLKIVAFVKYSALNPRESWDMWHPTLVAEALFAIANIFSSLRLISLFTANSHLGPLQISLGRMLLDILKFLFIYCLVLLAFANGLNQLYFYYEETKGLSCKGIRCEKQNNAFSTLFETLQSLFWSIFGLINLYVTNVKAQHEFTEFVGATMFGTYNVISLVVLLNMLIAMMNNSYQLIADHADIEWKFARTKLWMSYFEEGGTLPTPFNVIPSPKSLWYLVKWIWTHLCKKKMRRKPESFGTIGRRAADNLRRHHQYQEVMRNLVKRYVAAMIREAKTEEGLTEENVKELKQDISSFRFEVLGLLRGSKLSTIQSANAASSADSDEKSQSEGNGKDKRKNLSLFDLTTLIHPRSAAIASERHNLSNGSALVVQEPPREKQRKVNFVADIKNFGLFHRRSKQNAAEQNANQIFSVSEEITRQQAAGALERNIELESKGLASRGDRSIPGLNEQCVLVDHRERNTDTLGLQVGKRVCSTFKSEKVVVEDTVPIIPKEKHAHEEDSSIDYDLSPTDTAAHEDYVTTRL

[15] = cytotoxicity in HEK-293T cells, dose response, cytotoxicity control for TCR NF-kB inhibitor project, luminescence, T-cell screen hits (AID 489026); format: functional, cell-based;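 also: cells exposed to compound about 14 hours before the viability readout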
INS1 = assay: beta cell apoptosis inhibitors, cytokine rescue, dose response, luminescence, retest (AID 449756); format: functional, cell-based; conditions: Rattus norvegicus;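 also: cell death triggered by IL-1 beta plus TNF-alpha plus IFN-gamma mixture; protective hits raise ATP signal compared with cytokine alone wells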
[16] = Shn3 3'UTR reporter inhibitors, dose response, cell-based, Clone20 osteoblasts, firefly luciferase, cherry-picked (AID 624132); format: functional;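 also: firefly luciferase luminescence from reporter carrying the Shn3 3'UTR in osteoblasts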
[17] = HepG2 cell cytotoxicity, dose response, cytotoxicity control for Shn3 inhibitor project, CellTiter-Glo, cherry-picked (AID 624134); format: functional, cell-based
[18] = control 3'UTR Renilla luciferase suppression, dose response, counter-screen for Shn3 inhibitor project, cell-based, Clone20-Shn3RL, cherry-picked (AID 624133); format: functional

Voltage-gated inwardly rectifying potassium channel KCNH2, sequence (Q12809 whole entry): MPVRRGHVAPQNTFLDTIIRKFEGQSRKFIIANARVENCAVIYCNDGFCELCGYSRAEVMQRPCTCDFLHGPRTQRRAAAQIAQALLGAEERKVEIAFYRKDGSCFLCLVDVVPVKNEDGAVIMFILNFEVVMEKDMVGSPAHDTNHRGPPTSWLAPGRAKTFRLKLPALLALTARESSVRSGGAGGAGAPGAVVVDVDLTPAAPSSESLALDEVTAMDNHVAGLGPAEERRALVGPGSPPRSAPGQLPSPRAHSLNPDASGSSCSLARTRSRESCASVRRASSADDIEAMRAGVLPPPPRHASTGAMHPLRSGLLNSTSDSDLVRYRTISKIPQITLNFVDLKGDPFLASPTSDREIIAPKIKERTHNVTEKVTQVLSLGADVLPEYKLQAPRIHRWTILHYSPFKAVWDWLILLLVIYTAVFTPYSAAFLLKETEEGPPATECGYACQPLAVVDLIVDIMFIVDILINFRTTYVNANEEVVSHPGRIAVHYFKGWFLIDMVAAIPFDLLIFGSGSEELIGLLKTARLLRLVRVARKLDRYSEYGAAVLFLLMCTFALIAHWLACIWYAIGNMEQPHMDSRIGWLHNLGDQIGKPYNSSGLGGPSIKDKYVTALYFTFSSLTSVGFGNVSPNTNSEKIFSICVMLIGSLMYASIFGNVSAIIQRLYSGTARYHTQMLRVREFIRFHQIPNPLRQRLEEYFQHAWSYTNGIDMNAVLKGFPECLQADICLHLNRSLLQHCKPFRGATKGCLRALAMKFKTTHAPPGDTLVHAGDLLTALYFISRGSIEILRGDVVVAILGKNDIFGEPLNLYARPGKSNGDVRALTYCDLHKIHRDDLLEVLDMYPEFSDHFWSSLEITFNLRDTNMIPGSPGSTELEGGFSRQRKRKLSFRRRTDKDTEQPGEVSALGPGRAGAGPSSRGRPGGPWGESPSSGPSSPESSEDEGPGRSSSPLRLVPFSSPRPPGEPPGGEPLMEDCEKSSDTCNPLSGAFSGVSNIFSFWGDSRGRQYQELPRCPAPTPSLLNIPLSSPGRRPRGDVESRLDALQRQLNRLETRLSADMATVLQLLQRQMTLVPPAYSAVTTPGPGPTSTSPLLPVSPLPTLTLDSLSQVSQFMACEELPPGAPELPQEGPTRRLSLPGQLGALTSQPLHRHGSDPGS
Cytochrome P450 2C19, sequence (P33261 whole entry): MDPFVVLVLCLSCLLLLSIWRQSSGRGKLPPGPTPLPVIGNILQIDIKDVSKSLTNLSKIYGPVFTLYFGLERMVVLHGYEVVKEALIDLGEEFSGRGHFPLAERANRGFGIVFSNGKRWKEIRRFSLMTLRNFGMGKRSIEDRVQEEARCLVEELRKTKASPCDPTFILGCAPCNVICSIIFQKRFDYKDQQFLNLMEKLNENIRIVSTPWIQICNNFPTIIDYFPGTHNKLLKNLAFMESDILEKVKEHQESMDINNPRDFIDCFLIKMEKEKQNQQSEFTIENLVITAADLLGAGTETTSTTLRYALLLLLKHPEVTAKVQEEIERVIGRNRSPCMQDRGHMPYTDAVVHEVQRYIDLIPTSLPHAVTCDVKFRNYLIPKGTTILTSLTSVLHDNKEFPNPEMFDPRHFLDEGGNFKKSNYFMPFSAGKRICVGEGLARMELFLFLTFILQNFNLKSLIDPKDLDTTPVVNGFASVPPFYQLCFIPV
Eukaryotic translation initiation factor 4E, sequence (P63073 whole entry): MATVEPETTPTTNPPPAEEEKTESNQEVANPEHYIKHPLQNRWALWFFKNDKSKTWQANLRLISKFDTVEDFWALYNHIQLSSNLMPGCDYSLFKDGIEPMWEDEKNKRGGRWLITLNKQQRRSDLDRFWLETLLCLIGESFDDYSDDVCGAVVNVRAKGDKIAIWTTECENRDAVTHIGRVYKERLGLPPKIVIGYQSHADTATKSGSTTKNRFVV
Cytochrome P450 2C9, sequence (P11712 whole entry): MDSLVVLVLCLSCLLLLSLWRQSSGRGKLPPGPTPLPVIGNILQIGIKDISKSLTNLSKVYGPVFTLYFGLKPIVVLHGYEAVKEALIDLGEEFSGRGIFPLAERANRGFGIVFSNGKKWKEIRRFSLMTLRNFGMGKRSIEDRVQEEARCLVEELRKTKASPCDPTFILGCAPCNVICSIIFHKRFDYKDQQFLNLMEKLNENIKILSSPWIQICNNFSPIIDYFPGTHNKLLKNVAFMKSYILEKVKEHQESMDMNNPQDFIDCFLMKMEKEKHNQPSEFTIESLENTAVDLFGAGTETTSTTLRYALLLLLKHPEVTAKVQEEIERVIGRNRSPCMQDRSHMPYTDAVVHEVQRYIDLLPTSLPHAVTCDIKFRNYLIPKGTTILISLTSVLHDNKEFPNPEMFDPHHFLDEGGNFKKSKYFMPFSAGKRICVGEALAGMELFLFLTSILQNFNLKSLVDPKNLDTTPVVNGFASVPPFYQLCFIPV
DNA dC->dU-editing enzyme APOBEC-3A, sequence (P31941 whole entry): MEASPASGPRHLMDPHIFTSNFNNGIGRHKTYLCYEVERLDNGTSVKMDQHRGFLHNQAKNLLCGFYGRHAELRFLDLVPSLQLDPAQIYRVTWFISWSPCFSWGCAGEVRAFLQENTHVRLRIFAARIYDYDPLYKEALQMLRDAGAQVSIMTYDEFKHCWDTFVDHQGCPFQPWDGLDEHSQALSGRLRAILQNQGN
Glyceraldehyde-3-phosphate dehydrogenase, sequence (P04406 whole entry): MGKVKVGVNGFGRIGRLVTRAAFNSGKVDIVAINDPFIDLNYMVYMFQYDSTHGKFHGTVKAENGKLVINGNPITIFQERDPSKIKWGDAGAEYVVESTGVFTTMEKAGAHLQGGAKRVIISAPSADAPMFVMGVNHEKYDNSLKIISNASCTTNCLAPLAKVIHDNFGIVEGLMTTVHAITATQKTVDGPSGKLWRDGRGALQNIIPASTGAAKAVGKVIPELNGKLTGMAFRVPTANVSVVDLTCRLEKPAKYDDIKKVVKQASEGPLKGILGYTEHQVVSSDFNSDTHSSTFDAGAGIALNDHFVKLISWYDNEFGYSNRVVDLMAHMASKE
DNA dC->dU-editing enzyme APOBEC-3G, sequence (Q9HC16 whole entry): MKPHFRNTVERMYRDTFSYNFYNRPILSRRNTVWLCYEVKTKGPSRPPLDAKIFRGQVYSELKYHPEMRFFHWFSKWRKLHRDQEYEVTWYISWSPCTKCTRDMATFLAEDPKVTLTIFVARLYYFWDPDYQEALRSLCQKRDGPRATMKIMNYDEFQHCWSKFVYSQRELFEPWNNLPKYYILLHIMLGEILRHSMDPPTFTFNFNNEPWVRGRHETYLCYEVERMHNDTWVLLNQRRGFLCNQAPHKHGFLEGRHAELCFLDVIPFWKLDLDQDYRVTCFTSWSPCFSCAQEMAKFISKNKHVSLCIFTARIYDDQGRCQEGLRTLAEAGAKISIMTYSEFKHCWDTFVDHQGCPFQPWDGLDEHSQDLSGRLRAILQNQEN

Question: Which AC50 [1] does the source give for `CC(COc1ccc(/C=C/c2ccccc2)cc1)[N+](C)(C)C` (stereo not given) here?
Answer: The AC50 was 22.4 µM (inconclusive).

Question: What does the source list for `Cc1ccc(-n2c(SCC(=O)NCC3CCCO3)nc3nnc(C)c-3c2N)cc1Cl` (stereo not given)?
Answer: IC50 [2]: 2.21 µM (active); IC50 [3]: 4.6 µM (active)

Question: Which IC50 [4] does the source give for `O=C1[C@H]2CC=CC[C@H]2C(=O)N1c1nnc(Cc2ccc(F)cc2)[nH]1` here?
Answer: Its IC50 is > 100 µM (not active).

Question: And the IC50 [5]?
Answer: Its IC50 is 4.2 µM (active).

Question: What does the source list for `CCc1c(C)sc(NC(=O)C2CC2c2ccccc2)c1C(N)=O` (stereo not given)?
Answer: IC50 (Vero [6]): 3.57 µM (active); CC50 (Vero [7]): > 25 µM (active)

Question: With `C[n+]1ccccc1/C=C/c1ccccc1Cl` as the compound, how does the IC50 [8] read?
Answer: The IC50 was 2.25 µM (active).

Question: And the IC50 [9]?
Answer: Its IC50 is 2.41 µM (active).

Question: What does the source list for `Cc1ccc(Cn2cnc3ccccc32)cc1`?
Answer: IC50 [2]: 4.89 µM (active); IC50 [3]: 4.02 µM (active)

Question: Which IC50 [10] does the source give for `COc1ccc(CN2CCN(C(=O)CC(C)C)CC2)c(OC)c1OC` here?
Answer: The IC50 was > 64 µM (inactive).

Question: And the AC50 (Cytochrome P450 2C19)?
Answer: The AC50 was 25.1 µM (inconclusive).

Question: What about the AC50 (Cytochrome P450 2C9) of the same compound?
Answer: Its AC50 is “inconclusive”.

Question: With `CC(=O)c1cccc(CN2CCCC(N3CCN(c4ccccc4F)CC3)C2)c1` (stereo not given) as the compound, how does the AC50 [11] read?
Answer: The AC50 was 49.9 µM (active).

Question: For `Cc1sc2ncnc(NC3CCN(Cc4ccccc4)CC3)c2c1C`, which IC50 [2] is on record?
Answer: Its IC50 is 0.411 µM (active).

Question: And the IC50 [3]?
Answer: The IC50 was 0.316 µM (active).

Question: What about the EC50 [12] of the same compound?
Answer: The EC50 was 1.78 µM (active).

Question: And the EC50 [13]?
Answer: The EC50 was > 60 µM (not active).

Question: What about the EC50 [14] of the same compound?
Answer: The EC50 was 0.0467 µM (active).

Question: And the IC50 [15]?
Answer: The IC50 was > 80 µM (inactive).

Question: What about the AC50 (INS1) of the same compound?
Answer: The AC50 was 2.88 µM (active).

Question: And the AC50 [16]?
Answer: Its AC50 is 1.02 µM (active).

Question: What about the AC50 [17] of the same compound?
Answer: Its AC50 is 3.41 µM (active).

Question: What about the AC50 [18] of the same compound?
Answer: The AC50 was 2.61 µM (active).
